Data as given in PMC3148216, “A Prokaryotic S1P Lyase Degrades Extracellular S1P In Vitro and In Vivo: Implication for Treating Hyperproliferative Disorders” (PLoS ONE, 2011).

Target: T1, StSPL (S1P lyase from Symbiobacterium thermophilum) (Symbiobacterium thermophilum, UniProt Q67PY4)
T1 construct: gene STH1274; full-length STH1274, C-terminal His-tag, expressed in E. coli, 507 residues, 55 kDa monomer, homodimer (110 kDa); PLP-dependent, residues of both subunits form the active site
Assay: visible spectrum of enzyme-bound cofactor, change on substrate addition
Assay type: binding
Details: Schiff base with K311, covalent; S1P added; purified in PBS with 10 µM PLP

T1 sequence (Q67PY4 entry or part of it): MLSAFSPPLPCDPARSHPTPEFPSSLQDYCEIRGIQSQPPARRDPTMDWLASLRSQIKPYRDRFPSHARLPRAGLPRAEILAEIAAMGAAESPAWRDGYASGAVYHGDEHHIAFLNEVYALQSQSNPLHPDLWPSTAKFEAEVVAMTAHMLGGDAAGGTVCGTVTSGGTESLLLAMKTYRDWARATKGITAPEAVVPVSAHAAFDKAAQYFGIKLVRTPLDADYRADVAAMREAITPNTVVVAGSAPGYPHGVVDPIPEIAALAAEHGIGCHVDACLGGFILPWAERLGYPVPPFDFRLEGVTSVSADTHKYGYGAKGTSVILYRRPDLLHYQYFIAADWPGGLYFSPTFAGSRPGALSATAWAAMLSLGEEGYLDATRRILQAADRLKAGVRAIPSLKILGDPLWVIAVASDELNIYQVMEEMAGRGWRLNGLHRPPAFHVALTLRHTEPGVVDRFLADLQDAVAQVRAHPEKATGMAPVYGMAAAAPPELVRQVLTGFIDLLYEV

SMILES: Cc1ncc(COP(=O)(O)O)c(C=O)c1O [PLP, pyridoxal-5′-phosphate]
- visible spectrum of enzyme-bound cofactor, change on substrate addition: recording spectrophotometric changes of the cofactor upon catalysis
